Measured values: patent US8609652B2, “Method of administering a methylene blue-curcumin analog for the treatment of alzheimer's disease” (DePuy Synthes Products, LLC, priority 2009, dated 2013)
Entries after “also recorded” stand apart in the source; their conditions may differ. Where a name gives a salt, the structure may show the parent alone. Read-outs that look alike come from different tables or passages of the source.

Legend:
[1] = cited from earlier work; for Parent Solubility: parent phenol
[2] = cited from earlier work; for peak cerebrospinal fluid (CSF) concentration of estradiol: in vivo, 1 mg/kg
[3] = in vivo, 1 mg/kg
Description: In some embodiments, the water-soluble ester prodrug is created by reacting the phenolic parent compound with dimethylglycine. The literature reports rendering lipophilic phenolic compounds water soluble by reacting the phenolic parent compound with dimethylglycine. […]. Al-Ghananeem concluded that the prodrug provides for targeted intranasal delivery of 17B-estradiol to the brain.

[4] = cited from earlier work
[5] = cited from earlier work; remark: listed apart in the source
[6] = cited from earlier work; remark: listed apart in the source
[7] = cited from earlier work; remark: listed apart in the source
[8] = carbamazepine peak brain tissue concentration by route (Barakat)
[9] = tested on: enzymatic glucuronidation activity; conditions: concentrations in excess of about 10 mM; cited from earlier work
[10] = tested on: PC12 cells, βA (25-35); conditions: cited from earlier work; for anti-βA (25-35) ED50: Park, concentration required to achieve 50% cell viability; for anti-BA (25-35) ED50: Kim
[11] = tested on: PC12 cells, βA (1-42); conditions: cited from earlier work; for anti-βA (1-42) ED50: Park; for anti-BA (1-42) ED50: Kim
[12] = tested on: PC12 cells; experiment: relative potency versus curcumin in in vitro protection of PC12 cells against beta amyloid insult; format: cell-based
Description: Each of the parent compounds may be obtained by the methods disclosed in Park.
It is further observed that both of these qualities can be placed into the same molecule (35).

[13] = tested on: AD patients' macrophages; conditions: cited from earlier work
[14] = biological target: T1, UGT1A1 (Homo sapiens, UniProt P22309); conditions: about one hour after exposure; cited from earlier work
T1 sequence (P22309 26-533): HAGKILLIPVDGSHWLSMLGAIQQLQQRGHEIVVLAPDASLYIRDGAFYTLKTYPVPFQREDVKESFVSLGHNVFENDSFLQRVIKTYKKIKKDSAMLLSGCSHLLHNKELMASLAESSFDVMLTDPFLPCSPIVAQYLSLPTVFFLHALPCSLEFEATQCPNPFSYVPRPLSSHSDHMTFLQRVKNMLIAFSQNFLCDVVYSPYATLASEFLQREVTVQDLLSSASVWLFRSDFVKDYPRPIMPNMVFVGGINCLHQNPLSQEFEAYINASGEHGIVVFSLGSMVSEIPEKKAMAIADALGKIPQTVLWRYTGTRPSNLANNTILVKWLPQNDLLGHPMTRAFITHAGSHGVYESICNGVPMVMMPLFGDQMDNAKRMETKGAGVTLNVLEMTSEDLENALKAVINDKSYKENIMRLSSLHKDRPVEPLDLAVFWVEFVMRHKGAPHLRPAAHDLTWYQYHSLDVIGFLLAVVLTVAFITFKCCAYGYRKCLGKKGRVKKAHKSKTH

[15] = oral dosing, cited from earlier work
[16] = predicted curcumin levels from transdermal iontophoresis of charged curcumin prodrugs; format: in vivo, human
[17] = brain tissue concentration after curcumin injection (Wang); conditions: injection of 30 mg/kg
[18] = tested on: amyloid plaques; conditions: injected peripherally, aged Tg mice; cited from earlier work
[19] = biological target: MRP2 (Homo sapiens, UniProt Q92887); conditions: read-out: IC50, MRP-2-mediated transport; Wortelboer; cited from earlier work
MRP2, sequence (Q92887 whole entry): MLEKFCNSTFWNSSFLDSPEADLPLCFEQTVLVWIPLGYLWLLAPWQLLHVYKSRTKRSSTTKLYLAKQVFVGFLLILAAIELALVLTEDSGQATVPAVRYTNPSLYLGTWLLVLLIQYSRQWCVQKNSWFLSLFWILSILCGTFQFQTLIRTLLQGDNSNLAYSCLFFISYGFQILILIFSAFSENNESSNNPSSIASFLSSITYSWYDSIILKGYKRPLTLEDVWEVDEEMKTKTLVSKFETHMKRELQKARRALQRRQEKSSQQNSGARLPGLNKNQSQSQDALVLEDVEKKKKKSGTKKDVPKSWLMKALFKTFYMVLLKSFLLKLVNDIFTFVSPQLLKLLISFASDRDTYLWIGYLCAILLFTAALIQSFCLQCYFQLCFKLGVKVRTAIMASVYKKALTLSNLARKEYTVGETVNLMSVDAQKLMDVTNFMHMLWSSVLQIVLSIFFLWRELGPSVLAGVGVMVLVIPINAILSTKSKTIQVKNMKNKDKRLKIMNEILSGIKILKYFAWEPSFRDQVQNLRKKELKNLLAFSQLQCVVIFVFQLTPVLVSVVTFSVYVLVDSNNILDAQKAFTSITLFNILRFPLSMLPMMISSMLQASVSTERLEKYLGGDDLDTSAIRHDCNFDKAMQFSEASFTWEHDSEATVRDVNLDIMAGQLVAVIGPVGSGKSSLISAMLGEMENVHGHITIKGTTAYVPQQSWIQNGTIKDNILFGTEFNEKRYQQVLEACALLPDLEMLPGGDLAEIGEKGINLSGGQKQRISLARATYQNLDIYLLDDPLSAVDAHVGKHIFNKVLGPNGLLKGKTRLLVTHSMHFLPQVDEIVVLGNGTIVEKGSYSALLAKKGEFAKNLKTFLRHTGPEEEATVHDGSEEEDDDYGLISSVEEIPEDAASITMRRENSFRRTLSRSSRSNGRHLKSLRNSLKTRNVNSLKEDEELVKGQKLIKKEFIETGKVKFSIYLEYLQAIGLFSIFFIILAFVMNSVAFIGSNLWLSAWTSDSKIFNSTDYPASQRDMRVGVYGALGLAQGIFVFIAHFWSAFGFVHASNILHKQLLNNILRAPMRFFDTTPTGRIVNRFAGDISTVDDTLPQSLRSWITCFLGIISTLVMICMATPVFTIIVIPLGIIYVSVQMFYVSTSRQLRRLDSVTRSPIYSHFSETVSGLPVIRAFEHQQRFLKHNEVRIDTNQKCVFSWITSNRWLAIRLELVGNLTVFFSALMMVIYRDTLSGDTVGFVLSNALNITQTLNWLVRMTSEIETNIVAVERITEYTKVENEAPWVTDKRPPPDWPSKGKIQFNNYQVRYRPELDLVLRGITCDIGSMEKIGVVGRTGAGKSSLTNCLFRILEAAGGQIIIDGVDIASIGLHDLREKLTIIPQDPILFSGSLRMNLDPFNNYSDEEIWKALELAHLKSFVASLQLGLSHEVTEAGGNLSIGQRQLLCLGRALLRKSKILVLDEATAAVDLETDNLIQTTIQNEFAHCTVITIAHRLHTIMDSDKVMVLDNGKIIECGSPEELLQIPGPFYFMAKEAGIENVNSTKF

[20] = cited from earlier work; for serum Cmax: volunteers
[21] = cited from earlier work; remark: listed apart in the source
[22] = biological target: plasma membrane binding sites for resveratrol; conditions: rat brain; cited from earlier work
[23] = tested on: rat hippocampal neurons; conditions: cited from earlier work
[24] = tested on: cultured hippocampal cells; conditions: cited from earlier work
[25] = tested on: UGT enzymes; conditions: cited from earlier work
[26] = reservoir concentration about 25-50 mg/ml

CCN(CC)CCC(=O)Oc1ccc2c(c1)CC[C@@H]1[C@@H]2CC[C@]2(C)[C@@H](O)CC[C@@H]12.Cl [3-DEAPE2HCl, 3-N,N-diethylamino propionyl ester hydrochloride]
water solubility of estradiol ester prodrug ([1]; dimethylglycine ester where the label is estradiol): about 20 mg/ml

CN(C)CCCC(=O)Oc1ccc2c(c1)CC[C@@H]1[C@@H]2CC[C@]2(C)[C@@H](O)CC[C@@H]12.Cl [3-DMABE2-HCl, 3-N,N dimethylamino butyl ester HCl]
peak cerebrospinal fluid (CSF) concentration of estradiol [2]: about 66 ng/ml
peak CSF concentration (molar) [3]: ~0.15 µM

CCCN(CCC)C1CCc2c(O)cccc2C1 (centres unmarked) [5-OH-DPAT]
Flux ([4]; 0.5 mg/ml): 78.4 nmol/cm/h
Flux ([4]; 1.3 mg/ml): 187.6 nmol/cm/h
Flux ([4]; 2.3 mg/ml): 318.2 nmol/cm/h
Flux [4]: 90 μg/(cm^2 · h)

CN(C)CCCC(=O)O[C@H]1CC[C@H]2[C@@H]3CCc4cc(O)ccc4[C@H]3CC[C@]12C.Cl [17-DMABE2HCl, 17-N,N dimethylamino butyl ester HCl]
peak cerebrospinal fluid (CSF) concentration of estradiol [2]: about 30 ng/ml
peak CSF concentration (molar) [3]: about 0.075 μM
shelf life of nasal spray solution ([5]; pH 4, 25° C.): approximately 19 months

C[C@]12CC[C@@H]3c4ccc(O)cc4CC[C@H]3[C@@H]1CC[C@@H]2O [17β-estradiol]
octanol/water partition coefficient log P [6]: 3.1-4.0
CSF concentration of 17B-estradiol, intranasal versus comparable intravenous dose of the prodrug ([2]; dimethylglycine ester prodrug): 5-8 fold

Nc1nc2c(ncn2COCCO)c(=O)[nH]1 [Acyclovir]
solubility in water of the unmodified compound [1]: 1400 µg/mL

CC(C)NCC(O)COc1ccc(CC(N)=O)cc1 (centres unmarked) [Atenolol]
Flux [4]: 400 μg/(cm^2 · h)

NC(=O)N1c2ccccc2C=Cc2ccccc21 [Carbamazepine]
Peak Brain Tissue ([7]; Intranasal, 0.2 mg/kg): 12 µg/g
Peak Brain Tissue ([7]; Intravenous, 8.0 mg/kg): 4 µg/g
Peak Brain Tissue ([7]; Oral, 16 mg/kg): 3 µg/g
Peak Brain Tissue, ~uM ([8]; Intranasal, 0.2 mg/kg): ~48 µM
Peak Brain Tissue, ~uM ([8]; Intravenous, 8.0 mg/kg): ~16 µM
Peak Brain Tissue, ~uM ([8]; Oral, 16 mg/kg): ~12 µM
peak brain tissue concentration, intranasal versus oral dosing ([8]; in vivo, po): about four times higher

C[C@]12CC[C@H](O)CC1=CC[C@@H]1[C@@H]2CC[C@]2(C)C(=O)CC[C@@H]12 [DHEA]
octanol/water partition coefficient log P [6]: 1.54

CCCCOC(=O)[C@@H](N)Cc1ccc(O)c(O)c1 [L-dopa butyl ester]
estimated time for 10% decomposition ([5]; pH 4.4, 0.05M phosphate buffer, 10° C.): 2.7 years

CC(C)c1cccc(C(C)C)c1OC(=O)[C@@H]1CCCN1 [L-proline ester of propofol]
solubility of the prodrug [1]: about 1.1 mmol/ml

[Mg+2] [Mg^+2]
inhibition of enzymatic glucuronidation activity [9]: about 85%

O=C(O)c1ccccc1O [Salicylic Acid]
Flux [4]: 41.17 μg/(cm^2 · h)

CC(C)(C)NC[C@H](O)COc1nsnc1N1CCOCC1 [Timolol]
Flux ([4]; reservoir 10 mg/ml, 2 ml): 200 μg/(cm^2 · h)
Flux ([4]; reservoir 20 mg/ml, 2 ml): 250 μg/(cm^2 · h)

COc1cc(/C=C/C(=O)COC(=O)/C=C/c2ccc(O)c(OC)c2)ccc1O [compound 31, 4″-(3′″-methoxy-4′″-hydroxyphenyl)-2″-oxo-3″-enebutanyl3-(3′-methoxy-4′hydroxyphenyl)propenoate]
anti-βA (25-35) ED50 [10]: 1.0 ± 0.3 µg/mL
anti-βA (1-42) ED50 [11]: 2.0 ± 0.4 µg/mL
fold more potent than curcumin as neuroprotectant against beta amyloid ([12]; analysis of the Park data): ~5 fold

COc1cc(C=CC(=O)CC(=O)C=Cc2ccc(O)cc2)ccc1O [compound 32, 1-(4-hydroxy-3-methoxyphenyl)-7-(4-hydroxyphenyl)-1,6-heptadiene-3,5-dione]
anti-BA (25-35) ED50 [10]: 4.7 ± 0.1 µg/mL
anti-βA (25-35) ED50 [10]: 4.0 ± 0.5 µg/mL
anti-BA (1-42) ED50 [11]: 4.2 ± 0.3 µg/mL
anti-βA (1-42) ED50 [11]: 5.0 ± 0.5 µg/mL
fold more potent than curcumin as neuroprotectant against beta amyloid ([12]; analysis of the Kim data): ~1.5 fold

O=C(C=Cc1ccc(O)cc1)CC(=O)C=Cc1ccc(O)cc1 [compound 33, 1,7-bis(4-hydroxyphenyl)-1,6-heptadiene-3,5-dione]
anti-BA (25-35) ED50 [10]: 3.5 ± 0.2 µg/mL
anti-βA (25-35) ED50 [10]: 2.0 ± 0.6 µg/mL
anti-BA (1-42) ED50 [11]: 3.0 ± 0.3 µg/mL
anti-βA (1-42) ED50 [11]: 3.5 ± 0.7 µg/mL
optimum concentration [13]: 0.1 µM
fold more potent than curcumin as neuroprotectant against beta amyloid ([12]; analysis of the Kim data): ~2 fold
fold more potent than curcumin as neuroprotectant against beta amyloid ([12]; analysis of the Park data): 3 fold

O=C(C=Cc1ccc(O)cc1)CC(=O)CCc1ccc(O)cc1 [compound 34, 1,7-bis(4-hydroxyphenyl)-1-heptene-3,5-dione]
anti-βA (25-35) ED50 [10]: 0.5 ± 0.2 µg/mL
anti-βA (1-42) ED50 [11]: 1.0 ± 0.3 µg/mL
fold more potent than curcumin as neuroprotectant against beta amyloid ([12]; analysis of the Park data): ~10 fold

COc1cc(/C=C/C(=O)CC(=O)/C=C/c2ccc(O)c(OC)c2)ccc1O [curcumin, (E,E)-1,7-bis(4-hydroxy-3-methoxyphenyl)-1,6-heptadiene-3,5,-dione]
inhibition of UGT1A1 [14]: about 95%
octanol/water partition coefficient log P [6]: ~3
clearance ([15]; curcumin alone (Shoba)): 495 L/h
clearance ([15]; curcumin with piperine (Shoba)): 713 L/h
predicted flux ([16]; divalent curcumin salt): about 800 μg/(cm^2·h)
predicted plasma concentration ([16]; divalent curcumin salt): about 0.3 μM
predicted flux [16, 26]: about 400 μg/(cm^2·h)
predicted plasma concentration [16, 26]: about 60 ng/ml; also recorded: about 0.14 μM
predicted flux ([16]; worst case): about 35 μg/(cm^2·h)
predicted plasma concentration ([16]; worst case): about 5 ng/ml
predicted plasma concentration ([16]; worst case, flux 35, 50 cm^2, clearance 350 L/hr): 0.012 µM
peak curcumin concentration in brain tissue (molar) [17]: about 0.40 uM
blood brain barrier crossing and plaque binding [18]: crossed the blood brain barrier and bound amyloid plaques
IC50 [19]: 5000 nM
solubility in water of the unmodified compound [1]: about 0.004 mg/ml
AUC ([20]; Shoba, Oral + piperine): 80 ng·h/mL
AUC ([20]; Shoba, Oral Dosing): 4 ng·h/mL
serum Cmax ([20]; Shoba, 2 g/day oral curcumin supplemented with piperine, second of two values): 180 ng/mL
serum Cmax ([20]; Shoba, 2 g/day oral curcumin, first of two values): 6 ng/mL
AUC ([20]; Vareed, Oral Dosing): ~30 ng·h/mL
area-under-the-curve (AUC) ([20]; dose of about 11 g, healthy volunteers, conjugated curcumin (Vareed)): about 30 μg/ml·hr
clearance ([20]; oral dosing of curcumin plus piperine (Shoba)): 7.33 L/h

CCCCCCC(C)(C)c1cc(O)c2c(c1)OC(C)(C)[C@H]1CC=C(CO)C[C@H]21 [dexanabinol]
Parent Solubility [1]: 2000 to 7000 µg/mL

OCCOCCN1CCN(C(c2ccccc2)c2ccc(Cl)cc2)CC1 (centres unmarked) [hydroxyzine.HCl]
octanol:water partition coefficient log Doct/pH 7.4 ([6]; pH 7.4): 2.37-2.87

Oc1ccc(C=Cc2cc(O)cc(O)c2)cc1 [resveratrol]
octanol/water partition coefficient log P [6]: about 3.14
oral bioavailability [21]: about zero
Ki [22]: 102 nM
solubility in water [1]: < 10 mM
concentration with neuroprotective effect against beta amyloid-induced neurotoxicity [23]: 20 µM
concentration protecting against nitric oxide related neurotoxicity [24]: 5 to 25 µM

C[C@]12CC[C@H]3[C@@H](CCC4=CC(=O)CC[C@@]43C)[C@@H]1CC[C@@H]2OC(=O)[C@@H]1CCC[N+]1(C)C [testosterone-17β-stachydrine ester, chloride salt]
iontophoretic flux [4]: about 40 μg/(cm^2·h)

C[C@]12CC[C@H]3[C@@H](CCC4=CC(=O)CC[C@@]43C)[C@@H]1CC[C@@H]2O [testosterone]
Flux [4]: 40 μg/(cm^2 · h)
Parent Solubility [1]: 10 µg/mL

Triton X-100
inhibition of several UGT enzymes [25]: nearly fully inhibited
